Measurements as given in patent US8173654B2, “Triazolopyridazine compounds” (Janssen Pharmaceutica N.V., priority 2005, dated 2012).

Columns and labels:
c-Met [1] = target: T1, c-Met (Homo sapiens, UniProt P08581); test: Cell based ELISA assay for HGF stimulated c-Met phosphorylation in S114 cells; parameters: expressed in transfected cells; host or cells: S114 (murine NIH 3T3 derived); conditions: read-out: c-Met Cell ELISA IC-50
Procedure: A cell based ELISA assay was developed to evaluate the ability of compounds to inhibit HGF stimulated c-Met phosphorylation in cells.
S114 cells were seeded to a 96 well tissue culture treated dish at a concentration of 5×10^4 per well. After a 16-20 hour incubation, culture medium was removed and replaced with serum free medium supplemented with 0.5% BSA. Test compound was then added and incubated with the cells for 60 minutes, followed by the addition of 1 μl HGF at […] for 15 minutes. […] Following another 1 hour incubation at room temperature the plates were washed three times with Delfia wash buffer (Perkin Elmer). After the final wash, […] of Delfia enhancer solution (Perkin Elmer) was added and allowed to incubate for 60 minutes. Plates were read on an LJL Analyst instrument (Molecular Devices; Sunnyvale, Calif.) with filter settings of 360 excitation, 620 emission, and 410 dichroic. IC50 values were calculated using Graphpad Prism software (Graphpad Software; San Diego, Calif.).
Target sequence in this assay (P08581 25-1390): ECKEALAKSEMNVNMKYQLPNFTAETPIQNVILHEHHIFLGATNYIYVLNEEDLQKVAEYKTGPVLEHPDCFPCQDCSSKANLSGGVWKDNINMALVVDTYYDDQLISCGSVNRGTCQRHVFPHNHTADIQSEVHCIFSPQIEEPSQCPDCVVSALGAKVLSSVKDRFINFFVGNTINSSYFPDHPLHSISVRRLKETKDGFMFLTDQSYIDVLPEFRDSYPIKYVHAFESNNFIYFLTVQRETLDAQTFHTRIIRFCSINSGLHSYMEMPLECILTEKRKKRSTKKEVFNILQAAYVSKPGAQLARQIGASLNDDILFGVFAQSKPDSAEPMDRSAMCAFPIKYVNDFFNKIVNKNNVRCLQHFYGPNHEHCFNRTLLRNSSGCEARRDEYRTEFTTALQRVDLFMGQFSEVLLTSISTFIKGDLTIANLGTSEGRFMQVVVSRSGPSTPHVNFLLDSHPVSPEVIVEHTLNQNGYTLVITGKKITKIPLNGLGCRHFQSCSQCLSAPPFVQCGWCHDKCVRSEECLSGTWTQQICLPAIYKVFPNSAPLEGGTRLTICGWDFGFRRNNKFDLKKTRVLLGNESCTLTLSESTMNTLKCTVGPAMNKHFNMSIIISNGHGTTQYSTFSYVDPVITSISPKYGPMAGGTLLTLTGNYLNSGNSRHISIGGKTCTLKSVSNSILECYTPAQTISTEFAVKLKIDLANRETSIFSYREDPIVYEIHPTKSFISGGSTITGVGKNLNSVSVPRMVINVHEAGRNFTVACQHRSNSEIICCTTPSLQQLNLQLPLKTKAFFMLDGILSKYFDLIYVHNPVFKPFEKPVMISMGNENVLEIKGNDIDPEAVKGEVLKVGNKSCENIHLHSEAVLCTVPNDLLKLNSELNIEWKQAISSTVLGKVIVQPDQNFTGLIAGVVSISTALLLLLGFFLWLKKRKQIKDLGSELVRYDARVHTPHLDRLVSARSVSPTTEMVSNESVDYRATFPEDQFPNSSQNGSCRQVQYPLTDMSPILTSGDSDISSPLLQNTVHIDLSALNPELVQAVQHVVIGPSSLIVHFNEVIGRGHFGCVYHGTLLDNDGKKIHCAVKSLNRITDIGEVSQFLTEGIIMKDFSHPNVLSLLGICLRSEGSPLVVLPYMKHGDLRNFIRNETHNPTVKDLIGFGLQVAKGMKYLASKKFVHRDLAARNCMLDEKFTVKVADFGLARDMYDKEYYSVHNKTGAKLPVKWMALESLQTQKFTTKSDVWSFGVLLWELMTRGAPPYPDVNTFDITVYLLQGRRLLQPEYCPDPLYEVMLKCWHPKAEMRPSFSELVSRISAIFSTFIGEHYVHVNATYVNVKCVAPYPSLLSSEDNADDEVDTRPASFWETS

c-Met [2] = target: T1, c-Met; test: Delfia autophosphorylation kinase assay on the c-Met; assay type: biochemical; parameters: The purified His6 tagged cytoplasmic domain of c-Met was diluted to a concentration of 500 ng/ml; host or cells: Sf9 insect cells (baculovirus, pFastBacHTa); conditions: His6 tagged cytoplasmic domain of c-Met, 1 μM ATP; read-out: cMet Delfia autophos IC-50
Procedure: A DELFIA time resolved fluorescence assay was developed for screening of compounds that decreases the autophosphorylation thus the kinase activity of c-Met. The DELFIA assay is non-radioactive. The autophosphorylation of the c-Met is measured by an anti-phosphotyrosine antibody coupled to an Europium tag.
A major advantage of this format is that it allowed for the development of an autophosphorylation assay using Ni-chelate plates which bind the hexa-his tag on the recombinant Met kinase. The autophosphorylation assay allows one to use a known substrate, Met kinase itself, for the phosphorylation.
The assay procedure for screening is as follows. The purified His6 tagged cytoplasmic domain of c-Met was diluted to a concentration of 500 ng/ml in enzyme dilution buffer (50 mM Tris-HCl, pH8.0, 0.1% BSA) and dispensed to assay plates at a volume of 50 μl per well. Black opaque HisGrab Nickel coated 96 well plates (Pierce, Rockford, Ill.) were selected for use. Next, 2.5 μl of compound in 40% DMSO was added to test wells, 2.5 μl of 40% DMSO only was added to the negative control wells. The autophosphorylation reaction was initiated upon the addition of 50 μl of reaction buffer, 50 mM Tris-HCl, pH 8.0, 10 mM MgCl2, 0.1 mM Na3VO4, 1 mM DTT, 1 μM ATP. Plates were incubated at room temperature for 1 hour followed by 2 washes with 200 μl/well of PBS. Europium conjugated anti-phosphotyrosine antibody, Eu-PY20 from Perkin Elmer was diluted to 50 ng/ml in Delfia AB buffer (Perkin Elmer, Boston, Mass.), added to the 96 well assay plates at a volume of 100 μl/well, and incubated at room temperature for 2 hours. Assay plates were then washed 4 times each with 200 μl/well of Delfia wash buffer (Perkin Elmer). After the final wash 150 μl of Delfia Enhancement solution (Perkin Elmer) was added to each well of the assay plate and incubated at room temperature for 1 hour. Plates were read on an LJL Analyst instrument (Molecular Devices; Sunnyvale, Calif.) with filter settings of 360 excitation, 620 emission, and 410 dichroic. IC50 values were calculated using Graphpad Prism software (Graphpad Software; San Diego, Calif.).
Target sequence in this assay (P08581 956-1390 limits assumed): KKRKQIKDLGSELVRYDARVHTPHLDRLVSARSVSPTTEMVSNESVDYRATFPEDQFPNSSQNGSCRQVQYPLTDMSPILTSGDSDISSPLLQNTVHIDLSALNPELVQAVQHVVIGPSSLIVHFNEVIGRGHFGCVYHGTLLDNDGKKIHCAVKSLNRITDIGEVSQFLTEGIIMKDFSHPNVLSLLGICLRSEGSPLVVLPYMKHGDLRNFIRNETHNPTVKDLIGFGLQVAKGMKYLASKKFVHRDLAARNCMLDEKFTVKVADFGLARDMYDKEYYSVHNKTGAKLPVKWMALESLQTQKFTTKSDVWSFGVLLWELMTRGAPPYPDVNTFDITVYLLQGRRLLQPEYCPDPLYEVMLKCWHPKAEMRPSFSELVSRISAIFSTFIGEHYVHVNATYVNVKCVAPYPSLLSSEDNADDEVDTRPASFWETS

| SMILES | IC50 (c-Met [1]) [nM] | IC50 (c-Met [2]) [nM] |
| --- | --- | --- |
| Oc1ccc(Cc2nnc3ccc(-c4cn[nH]c4)nn23)cc1 [Example 3, 4-[6-(1H-Pyrazol-4-yl)-[1,2,4]triazolo[4,3-b]pyridazin-3-ylmethyl]-phenol] | 1030 | 16 |
| Oc1ccc(Cc2nnc3ccc(-c4ccn[nH]4)nn23)cc1 [Example 5, 4-[6-(2H-Pyrazol-3-yl)-[1,2,4]triazolo[4,3-b]pyridazin-3-ylmethyl]-phenol] | 1930 | 15 |
| c1cnc2ccc(Cc3nnc4ccc(-c5ccncc5)nn34)cc2c1 [Example 6, 6-(6-Pyridin-4-yl-[1,2,4]triazolo[4,3-b]pyridazin-3-ylmethyl)-quinoline] | 112 | 8 |
| c1cc(-c2ccc3nnc(Cc4ccc5c(c4)CCO5)n3n2)ccn1 [Example 7, 3-(2,3-Dihydro-benzofuran-5-ylmethyl)-6-pyridin-4-yl-[1,2,4]triazolo[4,3-b]pyridazine] | 2150 | 111 |
| CCCn1cc(-c2ccc3nnc(Cc4ccc5ncccc5c4)n3n2)cn1 [Example 9, 6-[6-(1-Propyl-1H-pyrazol-4-yl)-[1,2,4]triazolo[4,3-b]pyridazin-3-ylmethyl]-quinoline] | 48 | 1.6 |
| c1cncc(-c2ccc3nnc(Cc4ccc5ncccc5c4)n3n2)c1 [Example 11, 6-(6-Pyridin-3-yl-[1,2,4]triazolo[4,3-b]pyridazin-3-ylmethyl)-quinoline] | 86 | 6 |
| Nc1nc2ccc(Cc3nnc4ccc(-c5cccnc5)nn34)cc2s1 [Example 13, 6-(6-Pyridin-3-yl-[1,2,4]triazolo[4,3-b]pyridazin-3-ylmethyl)-benzothiazol-2-ylamine] | 215 | 15 |
| CS(=O)(=O)n1cc(-c2ccc3nnc(Cc4ccc5ncccc5c4)n3n2)cn1 [Example 15, 6-[6-(1-Methanesulfonyl-1H-pyrazol-4-yl)-[1,2,4]triazolo[4,3-b]pyridazin-3-ylmethyl]-quinoline] | 88 | 2 |
| COCCn1cc(-c2ccc3nnc(Cc4ccc5ncccc5c4)n3n2)cn1 [Example 16, 6-{6-[1-(2-Methoxy-ethyl)-1H-pyrazol-4-yl]-[1,2,4]triazolo[4,3-b]pyridazin-3-ylmethyl}-quinoline] | 295 | 9 |
| Oc1ccc(Cc2nnc3ccc(-c4nccs4)nn23)cc1 [Example 18, 4-(6-Thiazol-2-yl-[1,2,4]triazolo[4,3-b]pyridazin-3-ylmethyl)-phenol] | 86 | 10 |
| CCCc1ncc(-c2ccc3nnc(Cc4ccc5ncccc5c4)n3n2)s1 [Example 20, 6-[6-(2-Propyl-thiazol-5-yl)-[1,2,4]triazolo[4,3-b]pyridazin-3-ylmethyl]-quinoline] | 7 | 1 |
| c1csc(-c2ccc3nnc(Cc4ccc5c(c4)CCO5)n3n2)c1 [Example 22, 3-(2,3-Dihydro-benzofuran-5-ylmethyl)-6-thiophen-2-yl-[1,2,4]triazolo[4,3-b]pyridazine] | 9 | 15 |
| Cc1ccsc1-c1ccc2nnc(Cc3ccc4c(c3)CCO4)n2n1 [Example 23, 3-(2,3-Dihydro-benzofuran-5-ylmethyl)-6-(3-methyl-thiophen-2-yl)-[1,2,4]triazolo[4,3-b]pyridazine] | 113 | 41 |
| COc1ccc(Cc2nnc3ccc(-c4cccs4)nn23)cc1 [Example 25, 3-(4-Methoxy-benzyl)-6-thiophen-2-yl-[1,2,4]triazolo[4,3-b]pyridazine] | 483 | 41 |
| COc1ccc(Cc2nnc3ccc(-c4cccs4)nn23)cn1 [Example 31, 3-(6-Methoxy-pyridin-3-ylmethyl)-6-thiophen-2-yl-[1,2,4]triazolo[4,3-b]pyridazine] | 2400 | 77 |
| c1csc(-c2ccc3nnc(Cc4ccncc4)n3n2)c1 [Example 33, 3-Pyridin-4-ylmethyl-6-thiophen-2-yl-[1,2,4]triazolo[4,3-b]pyridazine] | 9900 | 96 |

| SMILES | IC50 (c-Met [1]) [nM] | IC50 (c-Met [2]) [nM] |
| --- | --- | --- |
| c1csc(-c2ccc3nnc(Cc4ccc5occc5c4)n3n2)c1 [Example 35, 3-Benzofuran-5-ylmethyl-6-thiophen-2-yl-[1,2,4]triazolo[4,3-b]pyridazine] | 75 | 9 |
| c1csc(-c2ccc3nnc(Cc4ccc5c(c4)OCO5)n3n2)c1 [Example 37, 3-Benzo[1,3]dioxol-5-ylmethyl-6-thiophen-2-yl-[1,2,4]triazolo[4,3-b]pyridazine] | 346 | 16 |
| Nc1nc2ccc(Cc3nnc4ccc(-c5cccs5)nn34)cc2s1 [Example 38, 6-(6-Thiophen-2-yl-[1,2,4]triazolo[4,3-b]pyridazin-3-ylmethyl)-benzothiazol-2-ylamine] | 2 | 0.45 |
| c1csc(-c2ccc3nnc(Cc4ccc5ncccc5c4)n3n2)c1 [Example 39, 6-(6-Thiophen-2-yl-[1,2,4]triazolo[4,3-b]pyridazin-3-ylmethyl)-quinoline] | 1 | 2 |
| Oc1ccc(Cc2nnc3ccc(-n4ccnc4)nn23)cc1 [Example 45, 4-(6-Imidazol-1-yl-[1,2,4]triazolo[4,3-b]pyridazin-3-ylmethyl)-phenol] | – | 70 |
| Oc1ccc(Cc2nnc3ccc(-n4cccn4)nn23)cc1 [Example 46, 4-(6-Pyrazol-1-yl-[1,2,4]triazolo[4,3-b]pyridazin-3-ylmethyl)-phenol] | – | 227 |
| O=C(c1ccc(-c2ccc3nnc(Cc4ccc5ncccc5c4)n3n2)s1)N1CCS(=O)(=O)CC1 [Example 54, (1,1-Dioxo-1λ6thiomorpholin-4-yl)-[5-(3-quinolin-6-ylmethyl-[1,2,4]triazolo[4,3-b]pyridazin-6-yl)-thiophen-2-yl]-methanone] | 6 | – |
| FC(F)(c1ccc2ncccc2c1)c1nnc2ccc(-c3cccs3)nn12 [Example 57, 6-[Difluoro-(6-thiophen-2-yl-[1,2,4]triazolo[4,3-b]pyridazin-3-yl)-methyl]-quinoline] | – | 0.3 |
| Cn1cc(-c2ccc3nnc(Cc4ccc5c(ccc[n+]5[O-])c4)n3n2)cn1 [Example 63, 6-[6-(1-Methyl-1H-pyrazol-4-yl)-[1,2,4]triazolo[4,3-b]pyridazin-3-ylmethyl]-quinoline 1-oxide] | – | 600 |
| Clc1ccc2cc(Cc3nnc4ccc(-c5cccnc5)nn34)ccc2n1 [Example 67, 2-Chloro-6-(6-pyridin-3-yl-[1,2,4]triazolo[4,3-b]pyridazin-3-ylmethyl)-quinoline] | – | 900 |
| c1cnc2ccc(Cc3nnc4ccc(-c5ccc6nn[nH]c6c5)nn34)cc2c1 [Example 78, 6-[6-(3H-Benzotriazol-5-yl)-[1,2,4]triazolo[4,3-b]pyridazin-3-ylmethyl]-quinoline] | – | 320 |
| Cc1nc2ccc(Cc3nnc4ccc(-c5cnn(C)c5)nn34)cc2s1 [Example 82, 3-(2-Methyl-benzothiazol-6-ylmethyl)-6-(1-methyl-1H-pyrazol-4-yl)-[1,2,4]triazolo[4,3-b]pyridazine] | – | 17 |
| N#Cc1cncc(-c2ccc3nnc(Cc4ccc5ncccc5c4)n3n2)c1 [Example 83, 5-(3-Quinolin-6-ylmethyl-[1,2,4]triazolo[4,3-b]pyridazin-6-yl)-nicotinonitrile] | – | 14 |
| c1cnc2ccc(Cc3nnc4ccc(-c5ccc6[nH]ccc6c5)nn34)cc2c1 [Example 84, 6-[6-(1H-Indol-5-yl)-[1,2,4]triazolo[4,3-b]pyridazin-3-ylmethyl]-quinoline] | 0.9 | – |
| c1cncc(-c2ccc3nnc(Cc4cccc5ncccc45)n3n2)c1 [Example 91, 5-(6-Pyridin-3-yl-[1,2,4]triazolo[4,3-b]pyridazin-3-ylmethyl)-quinoline] | – | 1050 |
